Experimental data taken from patent US20120029187A1, “HALOALKYLSULFONANILIDE DERIVATIVE” (Nissan Chemical Industries, Ltd., priority 2009, published 2012).

Key:
Assay type in all cases: in vivo
bulrush [1] = assay: Test Example 1: herbicidal effects in preemergence treatment under submerged conditions; details: dose 2.52 g/a
Outline: (§1)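 Scoring 0 (<5% mortality) to 5 (≥90%) was done three weeks after preemergence application to the water surface of submerged (4 cm) alluvial soil, doses given as g per are. Weeds were seeded and 2.5-leaf rice transplanted on the treatment day; greenhouse at 25–30 °C.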

ducksalad [2] = assay: as above; details: dose 2.52 g/a
Outline: as §1

barnyardgrass [3] = assay: as above; details: dose 2.52 g/a
Outline: as §1

wild oat [4] = assay: Test Example 3: herbicidal effects in soil treatment; details: dose 3.2 g/a
Outline: (§2)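 Seeds were sown in sterilized diluvial soil and covered with about 1.5 cm of soil. Compounds, formulated as emulsifiable concentrates and diluted with water, were sprayed evenly over the soil surface at set doses in g/a. Herbicidal effect was scored on a rating scale three weeks later.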

common ragweed [5] = assay: as above; details: dose 3.2 g/a
Outline: as §2

beadstraw [6] = assay: as above; details: dose 3.2 g/a
Outline: as §2

Italian ryegrass [7] = assay: as above; details: dose 3.2 g/a
Outline: as §2

posumbu knotweed [8] = assay: as above; details: dose 3.2 g/a
Outline: as §2

large crabgrass [9] = assay: as above; details: dose 3.2 g/a
Outline: as §2

barnyardgrass [10] = assay: as above; details: dose 3.2 g/a
Outline: as §2

redroot pigweed [11] = assay: as above; details: dose 3.2 g/a
Outline: as §2

velvetleaf [12] = assay: as above; details: dose 3.2 g/a
Outline: as §2

giant foxtail [13] = assay: as above; details: dose 3.2 g/a
Outline: as §2

common chickweed [14] = assay: as above; details: dose 3.2 g/a
Outline: as §2

water foxtail [15] = assay: as above; details: dose 3.2 g/a
Outline: as §2

common lambsquater [16] = assay: as above; details: dose 3.2 g/a
Outline: as §2

bulrush [17] = assay: Test Example 2: herbicidal effects during the vegetation period under submerged conditions; details: treatment during the vegetation period under submerged conditions; dose 2.52 g/a
Outline: (§3)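 Barnyardgrass, bulrush and ducksalad were co-sown in alluvial soil flooded to 4 cm and grown in a greenhouse at 25 to 30° C. At the 1- or 2-leaf stage, water-diluted emulsifiable concentrates went onto the water surface at set doses (g/a). Herbicidal effect was scored three weeks later on a graded scale.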

ducksalad [18] = assay: as above; details: treatment during the vegetation period under submerged conditions; dose 2.52 g/a
Outline: as §3

barnyardgrass [19] = assay: as above; details: treatment during the vegetation period under submerged conditions; dose 2.52 g/a
Outline: as §3

transplanted rice = assay: Test Example 1: preemergence treatment under submerged conditions, effect on crop; details: dose 2.52 g/a
Outline: as §1

wild oat [20] = assay: Test Example 4: herbicidal effect in foliage treatment; details: dose 3.2 g/a, three weeks after the application
Outline: (§4)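 Sowing in sterilized diluvial soil, ~1.5 cm cover; growth 14 d, 25–30° C greenhouse; foliar spray of water-diluted EC at predetermined g/a; scoring 3 wk later on graded scale.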

common ragweed [21] = assay: as above; details: dose 3.2 g/a, three weeks after the application
Outline: as §4

beadstraw [22] = assay: as above; details: dose 3.2 g/a, three weeks after the application
Outline: as §4

Italian ryegrass [23] = assay: as above; details: dose 3.2 g/a, three weeks after the application
Outline: as §4

posumbu knotweed [24] = assay: as above; details: dose 3.2 g/a, three weeks after the application
Outline: as §4

large crabgrass [25] = assay: as above; details: dose 3.2 g/a, three weeks after the application
Outline: as §4

barnyardgrass [26] = assay: as above; details: dose 3.2 g/a, three weeks after the application
Outline: as §4

redroot pigweed [27] = assay: as above; details: dose 3.2 g/a, three weeks after the application
Outline: as §4

velvetleaf [28] = assay: as above; details: dose 3.2 g/a, three weeks after the application
Outline: as §4

giant foxtail [29] = assay: as above; details: dose 3.2 g/a, three weeks after the application
Outline: as §4

common chickweed [30] = assay: as above; details: dose 3.2 g/a, three weeks after the application
Outline: as §4

water foxtail [31] = assay: as above; details: dose 3.2 g/a, three weeks after the application
Outline: as §4

common lambsquater [32] = assay: as above; details: dose 3.2 g/a, three weeks after the application
Outline: as §4

| SMILES | B: bulrush, herbicidal effect (evaluation scale 0-5) (bulrush [1]) | C: ducksalad, herbicidal effect (evaluation scale 0-5) (ducksalad [2]) | A: barnyardgrass, herbicidal effect (evaluation scale 0-5) (barnyardgrass [3]) | herbicidal effect, F: wild oat (wild oat [4]) | herbicidal effect, J: common ragweed (common ragweed [5]) | herbicidal effect, O: beadstraw (beadstraw [6]) | herbicidal effect, H: Italian ryegrass (Italian ryegrass [7]) | herbicidal effect, M: posumbu knotweed (posumbu knotweed [8]) | herbicidal effect, D: large crabgrass (large crabgrass [9]) | herbicidal effect, A: barnyardgrass (barnyardgrass [10]) | herbicidal effect, K: redroot pigweed (redroot pigweed [11]) | herbicidal effect, I: velvetleaf (velvetleaf [12]) | herbicidal effect, E: giant foxtail (giant foxtail [13]) | herbicidal effect, N: common chickweed (common chickweed [14]) | herbicidal effect, G: water foxtail (water foxtail [15]) | herbicidal effect, L: common lambsquater (common lambsquater [16]) | B: bulrush, herbicidal effect (evaluation scale 0-5) (bulrush [17]) | C: ducksalad, herbicidal effect (evaluation scale 0-5) (ducksalad [18]) | A: barnyardgrass, herbicidal effect (evaluation scale 0-5) (barnyardgrass [19]) | a: transplanted rice, effect on crop (evaluation scale 0-5) (transplanted rice) | also measured |
| --- | --- | --- | --- | --- | --- | --- | --- | --- | --- | --- | --- | --- | --- | --- | --- | --- | --- | --- | --- | --- | --- |
| O=C1CCSCN1Cc1ccccc1NS(=O)(=O)C(F)(F)F [II-78] | 5 (mortality of 90% or above (nearly complete death)) | 5 (mortality of 90% or above (nearly complete death)) | 5 (mortality of 90% or above (nearly complete death)) | 0 (mortality of less than 5% (almost ineffective)) | 4 (mortality of at least 70% and less than 90%) | 0 (mortality of less than 5% (almost ineffective)) | 5 (mortality of 90% or above (nearly complete death)) | 4 (mortality of at least 70% and less than 90%) | 5 (mortality of 90% or above (nearly complete death)) | 5 (mortality of 90% or above (nearly complete death)) | 3 (mortality of at least 40% and less than 70%) | 5 (mortality of 90% or above (nearly complete death)) | 5 (mortality of 90% or above (nearly complete death)) | 5 (mortality of 90% or above (nearly complete death)) | 5 (mortality of 90% or above (nearly complete death)) | 4 (mortality of at least 70% and less than 90%) | 5 (mortality of 90% or above (nearly complete death)) | 5 (mortality of 90% or above (nearly complete death)) | 5 (mortality of 90% or above (nearly complete death)) | 0 (mortality of less than 5% (almost ineffective)) | F: wild oat, herbicidal effect (wild oat [20]): 0 (mortality of less than 5% (almost ineffective)); J: common ragweed, herbicidal effect (common ragweed [21]): 4 (mortality of at least 70% and less than 90%); O: beadstraw, herbicidal effect (beadstraw [22]): 5 (mortality of 90% or above (nearly complete death)); H: Italian ryegrass, herbicidal effect (Italian ryegrass [23]): 5 (mortality of 90% or above (nearly complete death)); M: posumbu knotweed, herbicidal effect (posumbu knotweed [24]): 4 (mortality of at least 70% and less than 90%); D: large crabgrass, herbicidal effect (large crabgrass [25]): 4 (mortality of at least 70% and less than 90%); A: barnyardgrass, herbicidal effect (barnyardgrass [26]): 4 (mortality of at least 70% and less than 90%); K: redroot pigweed, herbicidal effect (redroot pigweed [27]): 4 (mortality of at least 70% and less than 90%); I: velvetleaf, herbicidal effect (velvetleaf [28]): 5 (mortality of 90% or above (nearly complete death)); E: giant foxtail, herbicidal effect (giant foxtail [29]): 4 (mortality of at least 70% and less than 90%); N: common chickweed, herbicidal effect (common chickweed [30]): 4 (mortality of at least 70% and less than 90%); G: water foxtail, herbicidal effect (water foxtail [31]): 5 (mortality of 90% or above (nearly complete death)); L: common lambsquater, herbicidal effect (common lambsquater [32]): 4 (mortality of at least 70% and less than 90%) |
| CCOC(=O)N(c1ccccc1CN1OCCCC1=O)S(=O)(=O)C(F)(F)F [III-13] | 5 (mortality of 90% or above (nearly complete death)) | 5 (mortality of 90% or above (nearly complete death)) | 5 (mortality of 90% or above (nearly complete death)) | 3 (mortality of at least 40% and less than 70%) | 5 (mortality of 90% or above (nearly complete death)) | 0 (mortality of less than 5% (almost ineffective)) | 5 (mortality of 90% or above (nearly complete death)) | 0 (mortality of less than 5% (almost ineffective)) | 5 (mortality of 90% or above (nearly complete death)) | 5 (mortality of 90% or above (nearly complete death)) | 3 (mortality of at least 40% and less than 70%) | 5 (mortality of 90% or above (nearly complete death)) | 5 (mortality of 90% or above (nearly complete death)) | 4 (mortality of at least 70% and less than 90%) | 5 (mortality of 90% or above (nearly complete death)) | 0 (mortality of less than 5% (almost ineffective)) | 5 (mortality of 90% or above (nearly complete death)) | 5 (mortality of 90% or above (nearly complete death)) | 5 (mortality of 90% or above (nearly complete death)) | 1 (mortality of at least 5% and less than 20%) | F: wild oat, herbicidal effect (wild oat [20]): 0 (mortality of less than 5% (almost ineffective)); J: common ragweed, herbicidal effect (common ragweed [21]): 4 (mortality of at least 70% and less than 90%); O: beadstraw, herbicidal effect (beadstraw [22]): 4 (mortality of at least 70% and less than 90%); H: Italian ryegrass, herbicidal effect (Italian ryegrass [23]): 4 (mortality of at least 70% and less than 90%); M: posumbu knotweed, herbicidal effect (posumbu knotweed [24]): 0 (mortality of less than 5% (almost ineffective)); D: large crabgrass, herbicidal effect (large crabgrass [25]): 5 (mortality of 90% or above (nearly complete death)); A: barnyardgrass, herbicidal effect (barnyardgrass [26]): 5 (mortality of 90% or above (nearly complete death)); K: redroot pigweed, herbicidal effect (redroot pigweed [27]): 0 (mortality of less than 5% (almost ineffective)); I: velvetleaf, herbicidal effect (velvetleaf [28]): 5 (mortality of 90% or above (nearly complete death)); E: giant foxtail, herbicidal effect (giant foxtail [29]): 5 (mortality of 90% or above (nearly complete death)); N: common chickweed, herbicidal effect (common chickweed [30]): 4 (mortality of at least 70% and less than 90%); G: water foxtail, herbicidal effect (water foxtail [31]): 5 (mortality of 90% or above (nearly complete death)); L: common lambsquater, herbicidal effect (common lambsquater [32]): 0 (mortality of less than 5% (almost ineffective)) |
